Test results as given in the supplement of paper PMC10627819.
Converted amounts (≈) assume the structure as drawn.

Columns and labels:
S. aureus DSM 20231 [1] = test system: S. aureus DSM 20231
S. aureus Newman [2] = test system: S. aureus Newman
S. aureus DSM 20231 [3] = test: fitness (endpoint OD595 vs no drug) (fraction); higher = more growth
How it was run: (§1)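 Bacterial growth was followed in 384-well plates seeded at OD595 0.01, with 30 µl per well, or 55 µl for S. pneumoniae, in TSB, LB Lennox or CY at 37 °C. OD595 was read every 30 min for 14 h, and each reading had the first reading subtracted as background. Fitness is the background-corrected optical density at entry into stationary phase divided by the robust mean of the no-drug control wells. This ratio is capped at 1.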

B. subtilis 168 [4] = test: as above
How it was run: as §1

S. pneumoniae D39V [5] = test: as above
How it was run: as §1

S. aureus Newman [6] = test: as above
How it was run: as §1

S. pneumoniae D39V [7] = test system: S. pneumoniae D39V
B. subtilis 168 [8] = test system: B. subtilis 168
S. aureus DSM 20231 [9] = test: Bliss interaction score (quartile over a dose matrix) (fitness difference); higher = more antagonism (negative = synergy)
How it was run: (§2)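 Values were capped at 1 after dividing OD595 at stationary-phase entry by the plate's robust no-drug mean. This ratio is fitness, and single-drug fitness was inferred from the combination data. The Bliss score is observed minus product-expected fitness, given as quartiles over technical, biological and donor/recipient replicates.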

B. subtilis 168 [10] = test: as above
How it was run: as §2

S. pneumoniae D39V [11] = test: as above
How it was run: as §2

S. aureus Newman [12] = test: as above
How it was run: as §2
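Throughout, for Bliss interaction score (quartile over a dose matrix): first quartile when negative (synergy) and third quartile when positive (antagonism).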

CC(=O)OC[C@H]1O[C@@H]([S-])[C@H](OC(C)=O)[C@@H](OC(C)=O)[C@@H]1OC(C)=O.CCP(CC)CC.[Au+] [Auranofin]
Conditions	MIC [µg/mL]
S. aureus DSM 20231 [1]	0.5
S. aureus Newman [2]	0.5

O=C(N[C@H](CO)[C@H](O)c1ccc([N+](=O)[O-])cc1)C(Cl)Cl [Chloramphenicol]
Conditions	fitness
B. subtilis 168 [4], 0.5 µg/mL	0.834
B. subtilis 168 [4], 1 µg/mL	0.659
S. aureus DSM 20231 [3], 0.75 µg/mL	0.878
S. aureus DSM 20231 [3], 1.5 µg/mL	0.711
S. aureus DSM 20231 [3], 3 µg/mL	0.0899
S. aureus Newman [6], 0.75 µg/mL	0.804
S. aureus Newman [6], 1.5 µg/mL	0.514
S. aureus Newman [6], 3 µg/mL	0.126
S. pneumoniae D39V [5], 0.375 µg/mL	0.893
S. pneumoniae D39V [5], 0.75 µg/mL	0.722
S. pneumoniae D39V [5], 1.5 µg/mL	0.407

Conditions	MIC [µg/mL]
S. aureus DSM 20231 [1]	3.5 (≈ 10.8 µM)
S. aureus Newman [2]	3 (≈ 9.28 µM)
S. pneumoniae D39V [7]	2 (≈ 6.19 µM)

CC[C@H]1OC(=O)[C@H](C)[C@@H](O[C@H]2C[C@@](C)(OC)[C@@H](O)[C@H](C)O2)[C@H](C)[C@@H](O[C@@H]2O[C@H](C)C[C@H](N(C)C)[C@H]2O)[C@](C)(OC)C[C@@H](C)C(=O)[C@H](C)[C@@H](O)[C@]1(C)O [Clarithromycin]
fitness
Conditions	0.0585 µg/mL	0.0625 µg/mL	0.117 µg/mL	0.125 µg/mL	0.234 µg/mL	0.25 µg/mL
S. aureus DSM 20231 [3]	0.94	–	0.691	–	0.0857	–
S. pneumoniae D39V [5]	–	0.568	–	0.346	–	0.148

Conditions	MIC [µg/mL]
S. aureus DSM 20231 [1]	0.234 (≈ 0.313 µM)
S. aureus Newman [2]	0.5 (≈ 0.668 µM)
S. pneumoniae D39V [7]	0.5 (≈ 0.668 µM)

CCC[C@@H]1C[C@@H](C(=O)N[C@@H]([C@H]2O[C@H](SC)[C@H](O)[C@@H](O)[C@H]2O)[C@H](C)Cl)N(C)C1 [Clindamycin]
Conditions	fitness
B. subtilis 168 [4], 0.0625 µg/mL	0.596
B. subtilis 168 [4], 0.125 µg/mL	0.432
B. subtilis 168 [4], 0.25 µg/mL	0.393
S. aureus DSM 20231 [3], 0.0312 µg/mL	0.747
S. aureus DSM 20231 [3], 0.0625 µg/mL	0.246
S. aureus DSM 20231 [3], 0.125 µg/mL	0.0653
S. aureus Newman [6], 0.0312 µg/mL	0.775
S. aureus Newman [6], 0.0625 µg/mL	0.432
S. aureus Newman [6], 0.125 µg/mL	0.108
S. pneumoniae D39V [5], 0.015 µg/mL	0.869
S. pneumoniae D39V [5], 0.03 µg/mL	0.682
S. pneumoniae D39V [5], 0.06 µg/mL	0.456

Conditions	MIC [µg/mL]
B. subtilis 168 [8]	1 (≈ 2.35 µM)
S. aureus DSM 20231 [1]	0.125 (≈ 0.294 µM)
S. aureus Newman [2]	0.125 (≈ 0.294 µM)
S. pneumoniae D39V [7]	0.125 (≈ 0.294 µM)

N[C@@H]1CONC1=O [Cycloserine D]
Conditions	fitness
B. subtilis 168 [4], 0.125 µg/mL	0.963
B. subtilis 168 [4], 0.25 µg/mL	0.948
B. subtilis 168 [4], 0.5 µg/mL	0.966
S. aureus DSM 20231 [3], 0.375 µg/mL	≥ 1
S. aureus DSM 20231 [3], 0.75 µg/mL	≥ 1
S. aureus DSM 20231 [3], 1.5 µg/mL	≥ 1
S. aureus Newman [6], 0.375 µg/mL	≥ 1
S. aureus Newman [6], 0.75 µg/mL	≥ 1
S. aureus Newman [6], 1.5 µg/mL	0.983
S. pneumoniae D39V [5], 2.188 µg/mL	0.872
S. pneumoniae D39V [5], 4.375 µg/mL	0.81
S. pneumoniae D39V [5], 8.75 µg/mL	0.533

Conditions	MIC [µg/mL]
B. subtilis 168 [8]	0.5 (≈ 4.9 µM)
S. aureus DSM 20231 [1]	1.5 (≈ 14.7 µM)
S. aureus Newman [2]	1.5 (≈ 14.7 µM)
S. pneumoniae D39V [7]	8.75 (≈ 85.7 µM)

O=C(O[C@@H]1Cc2c(O)cc(O)cc2O[C@@H]1c1cc(O)c(O)c(O)c1)c1cc(O)c(O)c(O)c1 [EGCG]
fitness
Conditions	B. subtilis 168 [4]	S. aureus DSM 20231 [3]	S. aureus Newman [6]	S. pneumoniae D39V [5]
6.25 µg/mL	0.91	–	–	–
12.5 µg/mL	0.709	0.841	0.778	0.946
25 µg/mL	0.34	0.776	0.714	0.964
50 µg/mL	–	0.795	0.671	0.987

Conditions	MIC [µg/mL]
B. subtilis 168 [8]	50 (≈ 109 µM)
S. aureus DSM 20231 [1]	50 (≈ 109 µM)
S. aureus Newman [2]	50 (≈ 109 µM)
S. pneumoniae D39V [7]	400 (≈ 873 µM)

CC(=O)O[C@H]1C[C@@]2(C)[C@@H](C[C@@H](O)[C@H]3[C@@]4(C)CC[C@@H](O)[C@@H](C)[C@@H]4CC[C@@]32C)/C1=C(\CCC=C(C)C)C(=O)O [Fusidic acid]
Conditions	MIC [µg/mL]
B. subtilis 168 [8]	0.5 (≈ 0.968 µM)
S. aureus Newman [2]	0.139 (≈ 0.269 µM)
S. pneumoniae D39V [7]	4 (≈ 7.74 µM)

C[C@@H](O)[C@H]1C(=O)N2C(C(=O)O)=C(SCCNC=N)C[C@H]12 [Imipenem]
fitness
Conditions	0.005 µg/mL	0.01 µg/mL	0.02 µg/mL	0.0625 µg/mL	0.125 µg/mL	0.25 µg/mL
B. subtilis 168 [4]	–	–	–	0.857	0.751	0.466
S. pneumoniae D39V [5]	0.961	0.95	0.943	–	–	–

Conditions	MIC [µg/mL]
B. subtilis 168 [8]	0.5 (≈ 1.67 µM)
S. pneumoniae D39V [7]	0.062 (≈ 0.207 µM)

CCC[C@@H]1C[C@@H](C(=O)N[C@@H]([C@H]2O[C@H](SC)[C@H](O)[C@@H](O)[C@H]2O)[C@@H](C)O)N(C)C1 [Lincomycin]
fitness
Conditions	0.1 µg/mL	0.2 µg/mL	0.4 µg/mL	0.8 µg/mL	1.6 µg/mL
B. subtilis 168 [4]	0.862	0.823	0.852	0.878	0.854
S. aureus DSM 20231 [3]	0.932	0.767	0.315	–	–
S. pneumoniae D39V [5]	–	0.648	0.432	0.211	–

Conditions	MIC [µg/mL]
S. aureus DSM 20231 [1]	0.4 (≈ 0.984 µM)
S. aureus Newman [2]	0.4 (≈ 0.984 µM)
S. pneumoniae D39V [7]	1.6 (≈ 3.94 µM)

COc1c(N2C[C@@H]3CCCN[C@@H]3C2)c(F)cc2c(=O)c(C(=O)O)cn(C3CC3)c12 [Moxifloxacin]
Conditions	fitness
B. subtilis 168 [4], 0.0312 µg/mL	0.0397
B. subtilis 168 [4], 0.0625 µg/mL	0.0388
B. subtilis 168 [4], 0.125 µg/mL	0.0181
B. subtilis 168 [4], 2 µg/mL	0.0291
B. subtilis 168 [4], 4 µg/mL	0.0224
B. subtilis 168 [4], 8 µg/mL	0.0114
S. aureus DSM 20231 [3], 0.0075 µg/mL	0.888
S. aureus DSM 20231 [3], 0.015 µg/mL	0.824
S. aureus DSM 20231 [3], 0.03 µg/mL	0.665
S. aureus Newman [6], 0.0075 µg/mL	0.748
S. aureus Newman [6], 0.015 µg/mL	0.642
S. aureus Newman [6], 0.03 µg/mL	0.0899
S. pneumoniae D39V [5], 0.0037 µg/mL	0.9
S. pneumoniae D39V [5], 0.0075 µg/mL	0.916
S. pneumoniae D39V [5], 0.015 µg/mL	0.862
S. pneumoniae D39V [5], 0.0312 µg/mL	0.134
S. pneumoniae D39V [5], 0.0625 µg/mL	0.088
S. pneumoniae D39V [5], 0.125 µg/mL	0.0638

Conditions	MIC [µg/mL]
S. aureus DSM 20231 [1]	0.033 (≈ 0.0822 µM)
S. aureus Newman [2]	0.033 (≈ 0.0822 µM)
S. pneumoniae D39V [7]	0.25 (≈ 0.623 µM)

COc1c(N2C[C@@H]3CCCN[C@@H]3C2)c(F)cc2c(=O)c(C(=O)O)cn(C3CC3)c12 [Moxifloxacin] + Cc1cc(NS(=O)(=O)c2ccc(N)cc2)no1 [Sulfamethoxazol]
Conditions	Bliss interaction score
B. subtilis 168 [10]	-0.0331
S. aureus DSM 20231 [9]	-0.0783
S. aureus Newman [12]	-0.071
S. pneumoniae D39V [11]	-0.0536

fitness
Conditions	partner 1 µg/mL	partner 2 µg/mL	partner 4 µg/mL
B. subtilis 168 [4], first compound 0.0312 µg/mL	0.0226	0.0442	0.0303
B. subtilis 168 [4], first compound 0.0625 µg/mL	0.0292	0.0328	0.0239
B. subtilis 168 [4], first compound 0.125 µg/mL	0.0176	0.0212	0.0185
B. subtilis 168 [4], first compound 2 µg/mL	0.0112	0.0253	0.0113
B. subtilis 168 [4], first compound 4 µg/mL	0.0152	0.0241	0.0125
B. subtilis 168 [4], first compound 8 µg/mL	0.0212	0.0227	0.0093
S. aureus DSM 20231 [3], first compound 0.0075 µg/mL	0.78	0.829	0.765
S. aureus DSM 20231 [3], first compound 0.015 µg/mL	0.69	0.724	0.76
S. aureus DSM 20231 [3], first compound 0.03 µg/mL	0.586	0.682	0.692
S. aureus Newman [6], first compound 0.0075 µg/mL	0.776	0.795	0.749
S. pneumoniae D39V [5], first compound 0.005 µg/mL	0.944	0.969	0.958
S. pneumoniae D39V [5], first compound 0.01 µg/mL	0.949	0.955	0.987
S. pneumoniae D39V [5], first compound 0.02 µg/mL	0.894	0.912	0.926

one replicate
Conditions	fitness
B. subtilis 168 [4], first compound 0.0312 µg/mL, partner 0.5 µg/mL	0.0261
B. subtilis 168 [4], first compound 0.0625 µg/mL, partner 0.5 µg/mL	0.034
B. subtilis 168 [4], first compound 0.125 µg/mL, partner 0.5 µg/mL	0.0283
S. aureus DSM 20231 [3], first compound 0.06 µg/mL, partner 1 µg/mL	0.669
S. aureus DSM 20231 [3], first compound 0.06 µg/mL, partner 2 µg/mL	0.655
S. aureus DSM 20231 [3], first compound 0.06 µg/mL, partner 4 µg/mL	0.655
S. aureus DSM 20231 [3], first compound 0.12 µg/mL, partner 1 µg/mL	0.445
S. aureus DSM 20231 [3], first compound 0.12 µg/mL, partner 2 µg/mL	0.44
S. aureus DSM 20231 [3], first compound 0.12 µg/mL, partner 4 µg/mL	0.431
S. aureus Newman [6], first compound 0.0075 µg/mL, partner 8 µg/mL	0.934
S. aureus Newman [6], first compound 0.015 µg/mL, partner 8 µg/mL	0.887
S. aureus Newman [6], first compound 0.03 µg/mL, partner 8 µg/mL	0.784
S. pneumoniae D39V [5], first compound 0.0037 µg/mL, partner 1 µg/mL	0.897
S. pneumoniae D39V [5], first compound 0.0037 µg/mL, partner 2 µg/mL	0.856
S. pneumoniae D39V [5], first compound 0.0037 µg/mL, partner 4 µg/mL	0.797
S. pneumoniae D39V [5], first compound 0.0075 µg/mL, partner 1 µg/mL	0.869
S. pneumoniae D39V [5], first compound 0.0075 µg/mL, partner 2 µg/mL	0.857
S. pneumoniae D39V [5], first compound 0.0075 µg/mL, partner 4 µg/mL	0.797
S. pneumoniae D39V [5], first compound 0.015 µg/mL, partner 1 µg/mL	0.842
S. pneumoniae D39V [5], first compound 0.015 µg/mL, partner 2 µg/mL	0.828
S. pneumoniae D39V [5], first compound 0.015 µg/mL, partner 4 µg/mL	0.79
